Experimental data published in patent publication US5045530A, “Pharmaceutical preparations” (priority 1986, dated 1991).
Where “and” joins values, the source holds several entries; their conditions need not be identical. Identical values can stand only once. Like-named read-outs stand apart in the source and are kept apart here.

What was measured:
fungus = assay: antifungal effect in combination with N-tensides; conditions: combination with N+ tensides of formula I and II
[1] = target: B. subtilis DNA polymerase III (Bacillus subtilis, UniProt P13267); assay: inhibition of DNA polymerase III by micellarly included Hg(CN)2 and Hg(CN)2 ascorbate; type: biochemical; conditions: micellarly included Hg(CN)2 / Hg(CN)2 ascorbate in the tenside named
B. subtilis DNA polymerase III, sequence (P13267 whole entry): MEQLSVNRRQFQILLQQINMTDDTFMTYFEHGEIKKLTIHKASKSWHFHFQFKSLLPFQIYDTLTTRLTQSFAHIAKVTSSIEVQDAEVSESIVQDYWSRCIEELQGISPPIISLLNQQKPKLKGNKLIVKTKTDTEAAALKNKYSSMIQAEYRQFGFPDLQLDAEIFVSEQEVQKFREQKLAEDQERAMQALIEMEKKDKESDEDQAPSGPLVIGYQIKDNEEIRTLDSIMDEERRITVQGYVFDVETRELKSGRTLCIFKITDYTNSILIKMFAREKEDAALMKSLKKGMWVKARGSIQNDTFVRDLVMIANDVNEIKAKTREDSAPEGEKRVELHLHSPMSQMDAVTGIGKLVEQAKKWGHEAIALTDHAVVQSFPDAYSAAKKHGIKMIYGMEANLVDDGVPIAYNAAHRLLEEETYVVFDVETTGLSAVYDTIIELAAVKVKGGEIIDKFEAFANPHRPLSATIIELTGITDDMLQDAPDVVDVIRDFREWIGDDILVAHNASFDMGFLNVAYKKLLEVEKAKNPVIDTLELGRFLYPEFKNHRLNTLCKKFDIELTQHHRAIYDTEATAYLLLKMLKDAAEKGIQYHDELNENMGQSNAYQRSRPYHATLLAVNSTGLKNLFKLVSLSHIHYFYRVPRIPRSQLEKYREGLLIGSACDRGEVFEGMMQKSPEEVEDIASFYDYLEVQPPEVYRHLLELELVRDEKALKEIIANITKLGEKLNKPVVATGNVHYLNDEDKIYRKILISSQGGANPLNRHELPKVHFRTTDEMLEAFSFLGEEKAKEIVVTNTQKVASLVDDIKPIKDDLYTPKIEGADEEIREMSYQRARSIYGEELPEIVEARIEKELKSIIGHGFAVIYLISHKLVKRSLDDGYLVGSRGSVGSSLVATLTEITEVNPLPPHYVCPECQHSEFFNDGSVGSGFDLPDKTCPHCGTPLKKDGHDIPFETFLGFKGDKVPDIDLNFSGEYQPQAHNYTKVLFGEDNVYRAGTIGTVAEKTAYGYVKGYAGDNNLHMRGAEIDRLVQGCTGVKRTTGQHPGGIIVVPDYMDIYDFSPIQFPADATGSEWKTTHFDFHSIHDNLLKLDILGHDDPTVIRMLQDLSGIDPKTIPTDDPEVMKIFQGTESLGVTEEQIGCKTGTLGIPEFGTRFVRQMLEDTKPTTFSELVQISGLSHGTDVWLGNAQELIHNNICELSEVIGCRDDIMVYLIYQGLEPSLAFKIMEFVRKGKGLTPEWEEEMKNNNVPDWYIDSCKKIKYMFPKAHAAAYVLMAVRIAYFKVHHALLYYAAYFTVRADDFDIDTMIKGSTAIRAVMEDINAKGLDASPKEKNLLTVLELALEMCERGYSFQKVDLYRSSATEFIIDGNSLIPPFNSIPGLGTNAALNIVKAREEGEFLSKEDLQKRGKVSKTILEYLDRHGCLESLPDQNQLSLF
Procedure: Analogously to example 2 10 mg Hg(CN)2 and 40 mg Na ascorbate at pH 7.0 are dissolved in 10 ml phosphate buffer. The suspension is subjected to an ultrasonic treatment at 0° C. for 5 min, slowly heated to 20° C. and centrifuged to a 10% (^w /w) linear glycerol gradient in a preparative ultracentrifuge at 1000 xg for 6 hours (20° C., Polyalomer tubes).
The inhibitor concentrations are given in 50% of the complete inhibition. The assay which was used is that according to Clements, J; D'Ambrosio, J; Brown, N.C; J.Biol.Chem. (1975) 250, 522 and Wright, G.E.; Brown, N.C; Biochem. Biophys. Acta (1976) 432, 37.

[2] = hydrodynamic (Stokes) radius / size of micelles and vesicles, inelastic light scattering; type: physicochemical
[3] = critical micellization concentration (cmc); type: physicochemical
[4] = in vivo; cited from earlier work
pyrimidine biosynthesis = assay: pyrimidine biosynthesis; conditions: micellarly included
[5] = tested on: influenza virus, subgroup A2; Herpes simplex virus HSV I-III; type: cell-based; conditions: monolayer cells infected with Herpes simplex virus type 1 or influenza virus type A2; with N+-tensides of formula I and II
influenza A strains [6] = type: cell-based, influenza virus type A
[7] = micellar incorporation of active substances by dialysis, extinction at 260 nm; type: physicochemical; conditions: hexadecylpyridinium chloride micelles, 20° C., pH 5.5
influenza A virus = type: cell-based
influenza virus type B = assay: inhibition of influenza B in vitro; type: cell-based
Procedure: Amantadine (1-adamantanamine-HCl) has a particular pharmadynamic action against influenza viruses (class A). The replication of most influenza A strains is inhibited in vitro between 0.2-0.6 μg/ml. Micellarly included amantadine in cationic micelles, in particular of the form (Het≡N--(CH2)x --CH3)Y⊖, effect a reduction of the concentration of pharmaceutical active substance to 0.05 μg/ml amantadine, measured by Hayden et al. (Plaque inhibition assay for drug susceptibility resting of influenza viruses. Antimicrob. Ag. Chemother. 1980, 17: […]; Grunert et al.; Sensitivity of influenza A/New Jersey 18/76/(Hswl-Nl) virus to amantadine HCl, J. Inf. Dis. 1977, 136, 297-300).
With a concentration of 0.01% by weight of amantadine for influenza virus type B corresponding to a concentration of 0.5 μg/ml pharmaceutical active substance in vitro.

influenza A strains [8] = conditions: amantadine on its own, in vitro; cited from earlier work
salivary secretion = conditions: in vivo
adenosine-desaminase = target: T1, adenosine-desaminase (Homo sapiens, UniProt P00813); assay: antitumor activity of micellarly dissolved adenosine-desaminase inhibitors; conditions: dissolved micellarly according to formula I and II
T1 sequence (P00813 1-363): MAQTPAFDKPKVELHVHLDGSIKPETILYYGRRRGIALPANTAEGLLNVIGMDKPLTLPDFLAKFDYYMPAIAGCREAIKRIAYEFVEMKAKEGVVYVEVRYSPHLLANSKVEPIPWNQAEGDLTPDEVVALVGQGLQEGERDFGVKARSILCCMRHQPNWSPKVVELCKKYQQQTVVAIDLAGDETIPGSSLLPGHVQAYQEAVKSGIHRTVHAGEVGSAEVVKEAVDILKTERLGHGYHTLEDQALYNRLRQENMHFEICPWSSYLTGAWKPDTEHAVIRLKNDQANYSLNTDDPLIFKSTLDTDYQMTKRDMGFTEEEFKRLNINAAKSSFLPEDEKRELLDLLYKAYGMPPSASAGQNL

In the case of `Clc1ccc(COC(Cn2ccnc2)c2ccc(Cl)cc2Cl)c(Cl)c1` (stereo not drawn) [miconazole], the “intensification of the antifungal effect by N+ tensides” value (“intensification … by N+ tensides” for short) (fungus) is reported as “≈ 35%”.
In the case of “3-[[(Dimethylamino)-carboxyl]oxyl]-1-hexadecyl-pyridinium”, the competitive with [1] is reported as “dATP”.
With `CCCCCCCCCCCCCCCC[n+]1cc(F)c(O)cc1O` [2,-4-Dihydroxy-5-Fluoro hexadecyl-pyridinium] the “<RH> hydrodynamic radius” value [2] was 210 and 150.
With 8-Ketohexadecylpyridinium the competitive with [1] was “dGTP”.
With `CCCCCCCCCCCC[n+]1csc2ccccc21` [3-Dodocyl-benzthiazolium] the “cmc × 10^-6 M” value ([3]; Table 2, HET≡N+-(CH2)x-CH3 Y-) was 10.90 × 10^-6 M.
With Dodecyl-pyrimidinium the “cmc × 10^-6 M” value ([3]; Table 2, HET≡N+-(CH2)x-CH3 Y-) was 1.20 × 10^-6 M.
For `CCCCCCCCCCCCCCCC[n+]1cc(C)c(O)cc1O` [2,-4-Dihydroxy-5-methyl-hexadecyl-pyridinium], the “<RH> hydrodynamic radius” value [2] was 1000 and 1500.
In the case of “3,5-bis[n-hexadecyloxy-carbonyl]-N-methyl-pyridinium”, the competitive with [1] is reported as “dGTP”.
With 3-Hexadecylbenzimidazolium the “cmc × 10^-6 M” value ([3]; Table 2, HET≡N+-(CH2)x-CH3 Y-) was 6.70 × 10^-6 M.
For `CCCCCCCCCCCCCCCC[n+]1ccnc(C(N)=O)c1` [2-Carboxamide-4-hexadecyl-1,4-diazinium], the “cmc × 10^-6 M” value ([3]; Table 2, HET≡N+-(CH2)x-CH3 Y-) was 0.30 × 10^-6 M.
For 3-Hexadecyl-6-methyl-benzimidazolium, the “cmc × 10^-6 M” value ([3]; Table 2, HET≡N+-(CH2)x-CH3 Y-) was 17.00 × 10^-6 M.
In the case of polymyxin B, the plasma half life [4] is given as 4.5 h.
In the case of N-Hexadecyl-4-cetyl-imidazolinium, the “<RH> hydrodynamic radius” value [2] is reported as 100 and 150.
For Hexadecyl-4-Hydroxy-pyridinium, the “cmc × 10^-6 M” value ([3]; Table 2, HET≡N+-(CH2)x-CH3 Y-) was 0.95 × 10^-6 M.
With “Cetyl-2,3-dihydroxy-propyl-hexadecyl-pyridinium” the “<RH> hydrodynamic radius” value [2] was 150.0 and 180.4 and 210.4 and 120.0.
With `O=C(O)C[C@H](NC(=O)CP(=O)(O)O)C(=O)O` [N-(phosphonoacetyl)-aspartate] the “intensification of the effect on pyrimidine biosynthesis (blocking of the carbamylation of aspartate)” value (pyrimidine biosynthesis) was 20 fold.
With 2-Carboxamid-3-hexadecyl-1,4-pyridinium the “<RH> hydrodynamic radius” value ([2]; Table 3, counter ion Y- = NO3-) was 440 Å.
With `O=c1[nH]c(=O)n([C@H]2C[C@H](O)[C@@H](CO)O2)cc1C(F)(F)F` [trifluorothymidine] the “lowering of the inhibition concentration compared with applications without quaternary ammonium bases” value [5] was 30%.
For `CCCCCCCCCCCCCCCCC(CCCCCCCCCCCCCCCC)c1cc[n+](C)cc1.[Cl-]` [4-(17-tritriacontyl)-N-methylpyridinium chloride], the competitive with [1] was “dGTP”.
For `CC(N)C12CC3CC(CC(C3)C1)C2.Cl` (stereo not drawn) [rimantadine, α-methyl-1-adamantanemethylamine hydrochloride], the “dose with the same in vitro effect as the pure active substance” value (influenza A strains [6]) was 0.05 µg/mL.
In the case of 2,5-Dimethyl-3-hexadecyl-thiazolium, the “cmc × 10^-6 M” value ([3]; Table 2, HET≡N+-(CH2)x-CH3 Y-) is reported as 15.00 × 10^-6 M.
In the case of 5-Methyl-1-hexadecylimidazolium, the “cmc × 10^-6 M” value ([3]; Table 2, HET≡N+-(CH2)x-CH3 Y-) is reported as 3.90 × 10^-6 M.
In the case of `Clc1ccc(COC(Cn2ccnc2)c2ccc(Cl)cc2Cl)cc1` (stereo not drawn) [econazole], the “intensification … by N+ tensides” value (fungus) is reported as “≈ 35%”.
For `O=c1[nH]c(=O)n([C@H]2C[C@H](O)[C@@H](CO)O2)cc1I` [Idoxuridine, idoxuridine], the “Yield (%) of micellar incorporation” value ([7]; Table 1 experiment 1, Trifluoroamame 5, Idoxuridine […]100 ml) was 95%, the “Yield (%) of micellar incorporation” value ([7]; Table 1 experiment 2, Trifluoroamame 7.5, Idoxuridine 10.5 mg/100 ml) was 98% and the “Yield (%) of micellar incorporation” value ([7]; Table 1 experiment 3, Trifluoroamame 10.0, Idoxuridine 12.5 mg/100 ml) was 98%. For the same compound, the “Yield (%) of micellar incorporation” value ([7]; Table 1 experiment 4, Trifluoroamame 12.0, Idoxuridine […]100 ml) was 98%, the “Yield (%) of micellar incorporation” value ([7]; Table 1 experiment 5, Trifluoroamame 15.0, Idoxuridine 17.0 mg/100 ml) was 97% and the “Yield (%) of micellar incorporation” value ([7]; Table 1 experiment 6, Trifluoroamame 17.0, Idoxuridine 20.0 mg/100 ml) was 96%. For the same compound, the “Yield (%) of micellar incorporation” value ([7]; Table 1 experiment 7, Trifluoroamame 20.0, Idoxuridine 21.5 mg/100 ml) was 98%, the “Yield (%) of micellar incorporation” value ([7]; Table 1 experiment 8, Trifluoroamame 25.0, Idoxuridine 23.0 mg/100 ml) was 100% and the “Yield (%) of micellar incorporation” value ([7]; Table 1 experiment 9, Trifluoroamame 30.0, Idoxuridine 24.0 mg/100 ml) was 100%. The “Yield (%) of micellar incorporation” value ([7]; Table 1 experiment 10, Trifluoroamame 50.0, Idoxuridine 30.0 mg/100 ml) was 100% and the “lowering of the inhibition concentration compared with applications without quaternary ammonium bases” value [5] was 30%.
With `CCCCCCCCCCCCCCCC[n+]1ccccc1.[Cl-]` [hexadecylpyridinium chloride, N-(n-hexadecyl)-pyridinium chloride, reference compound] the “RH (Å) (±5.0 Å)” value ([2]; pH 5.5) was 45.0 and 50.5 and 60.0 and 65.0 and 71.5 and 75.0 and 78.0.
With “2-Hydroxy,6-amino-hexadecyl-pyrimidinium” the “cmc × 10^-6 M” value ([3]; Table 2, HET≡N+-(CH2)x-CH3 Y-) was 2.00 × 10^-6 M.
For `Nc1ccn([C@@H]2O[C@H](CO)[C@@H](O)[C@@H]2O)c(=O)n1` [cytarabine], the “lowering of the inhibition concentration compared with applications without quaternary ammonium bases” value [5] was 30%.
With `CCCCCCCCCCCCCCCC[n+]1c(O)ncc(F)c1O` [2,6-Dihydroxy,5-Fluor,hexadecyl-pyrimidinium] the “cmc × 10^-6 M” value ([3]; Table 2, HET≡N+-(CH2)x-CH3 Y-) was 0.85 × 10^-6 M.
With 2,6-Dihydroxy-dodecyl-pyrimidinium the “cmc × 10^-6 M” value ([3]; Table 2, HET≡N+-(CH2)x-CH3 Y-) was 1.90 × 10^-6 M.
With `Cl.NC12CC3CC(CC(C3)C1)C2` [1-adamantaneamine HCl, 1-adamantanamine-HCl] the “Inhibition, 10log (pfu/ml of the inhibitor)/(pfu/ml check)” value (influenza A virus) was -1.11, the “Titration of infection, Plaque forming units” value (influenza A virus) was 2 × 10^6 and the “concentration of active substance for inhibition” value (influenza A strains [6]) was 0.05 µg/mL. For the same compound, the “activity against influenza virus type B” value (influenza virus type B; amantadine on its own) was “practically no activity”, the “concentration showing inhibition of influenza virus type B” value (influenza virus type B; micellarly included in cationic tensides, 0.01% by weight of amantadine) was 0.5 µg/mL and the “concentration inhibiting replication of most influenza A strains” value (influenza A strains [8]) was 0.2 to 0.6 µg/mL.
In the case of `CN1[C@@H]2CC[C@H]1C[C@@H](OC(=O)C(CO)c1ccccc1)C2` (stereo partly drawn) [atropine], the “intensification of the inhibitory effect on salivary secretion” value (salivary secretion) is reported as “tenfold”.
For `CCCCCCCCCCCC[n+]1ccccc1` [Dodecyl-pyridinium], the “cmc × 10^-6 M” value [3] was 1.52.
For “3-Hexadecyl-5,6-dihydroxy-benzthiazolium”, the “cmc × 10^-6 M” value ([3]; Table 2, HET≡N+-(CH2)x-CH3 Y-) was 7.90 × 10^-6 M.
With `Clc1ccccc1C(c1ccccc1)(c1ccccc1)n1ccnc1` [clotrimazole] the “intensification … by N+ tensides” value (fungus) was “≈ 35%”.
In the case of `NC(=O)c1[nH]nc([C@@H]2O[C@H](CO)[C@@H](O)[C@H]2O)c1O` [pyrazofurine], the “irreversible inhibition of pyrimidine biosynthesis” value (pyrimidine biosynthesis) is reported as 20%.
In the case of Hexadecyl-pyrimidinium, the “cmc × 10^-6 M” value ([3]; Table 2, HET≡N+-(CH2)x-CH3 Y-) is reported as 2.50 × 10^-6 M.
For 4-Methyl- -2-hexadecyl-pyrazolium, the “cmc × 10^-6 M” value ([3]; Table 2, HET≡N+-(CH2)x-CH3 Y-) was 0.70 × 10^-6 M.
In the case of 3-Hexadecylthiazolium, the “cmc × 10^-6 M” value ([3]; Table 2, HET≡N+-(CH2)x-CH3 Y-) is reported as 0.91 × 10^-6 M.
With “2-Hydroxy,5-methyl,6-amino-hexadecyl-pyrimidinium” the “cmc × 10^-6 M” value ([3]; Table 2, HET≡N+-(CH2)x-CH3 Y-) was 1.00 × 10^-6 M.
For 2-carboxamid-3-dodecyl-1,4-pyridinium, the “<RH> hydrodynamic radius” value ([2]; Table 3, counter ion Y- = NO3-) was 366 Å.
In the case of erythro-9-(2-hydroxy-3-nonyl)-adenine, the “intensification of the antitumor activity” value (adenosine-desaminase) is reported as “tenfold”.
For 3-Dodecyl-6-methyl-benzimidazolium, the “cmc × 10^-6 M” value ([3]; Table 2, HET≡N+-(CH2)x-CH3 Y-) was 7.30 × 10^-6 M.
